System: glyoxalases
Assay: induction of glyoxalase activity in skin cells
Format: cell-based
Details: no method or numbers given

## C=CC(C)(C)c1cc(/C=C/C(=O)c2ccc(O)cc2)c(OC)cc1O [licochalcone A]
  activity of glyoxalases induced in skin cells: enhanced activity of glyoxalases
